# Measured values from ChEMBL document CHEMBL5537196, “Discovery of KIN-3248, An Irreversible, Next Generation FGFR Inhibitor for the Treatment of Advanced Tumors Harboring FGFR2 and/or FGFR3 Gene Alterations” (J Med Chem, 2024).
# Key:
# [1] = Cmax in Sprague-Dawley rat at 15 mg/kg,po administrated at 0.25 to 24 hrs by LC-MS/MS analysis; format: ADME, organism-based; details: in vivo, time 0.25-24 hrs
# SNU-16 [2] = test: Antitumor activity against human SNU-16 cells xenografted in mouse assessed as tumor growth inhibition at 5 mg/kg,po administrated once daily for 3 weeks relative to control; format: functional; details: SNU-16, 504 h, read-out: TGI
# [3] = Lipophilicity, logP of compound; format: physicochemical; details: octanol/water
# [4] = Solubility of compound in FeSSIF; format: ADME
# [5] = Total clearance in Sprague-Dawley rat at 5 mg/kg,iv administrated at 0.25 to 24 hrs by LC-MS/MS analysis; format: ADME, organism-based; details: in vivo, time 0.25-24 hrs
# [6] = Total clearance in Beagle dog at 5 mg/kg,iv administrated at 0.25 to 24 hrs by LC-MS/MS analysis; format: ADME, organism-based, Canis lupus familiaris; details: in vivo, time 0.25-24 hrs
# [7] = Aqueous solubility of the compound at pH 7.4; format: physicochemical
# [8] = Intrinsic clearance in human liver microsomes; format: ADME, Microsome; details: read-out: CLH
# [9] = Unbound drug concentration in mouse plasma xenografted with patient derived STO357 PDX cells at 15 mg/kg,po administration and measured after 15 mins by LC-MS/MS analysis; format: ADME, organism-based; details: in vivo, 0.25 h
# [10] = AUC (0 to 24 hrs) in Beagle dog at 15 mg/kg,po administrated at 0.25 to 24 hrs by LC-MS/MS analysis; format: ADME, organism-based, Canis lupus familiaris; details: in vivo, time 0.25-24 hrs
# [11] = Aqueous solubility of the compound at pH 2; format: physicochemical
# [12] = Solubility of compound in FaSSIF; format: ADME
# [13] = Antitumor activity against patient derived STO357 PDX cells xenografted in mouse assessed as downregulation of ERK phosphorylation at 15 mg/kg,po administration and measured after 7 hrs by MSD assay; format: functional, Homo sapiens
# [14] = Antitumor activity against patient derived STO357 PDX cells xenografted in mouse assessed as downregulation of ERK phosphorylation at 5 mg/kg,po administration and measured after 7 hrs by MSD assay; format: functional, Homo sapiens
# RT-112 [15] = test: Antitumor activity against human RT-112 cells xenografted in mouse assessed as tumor growth inhibition at 2 mg/kg,po administrated once daily for 3 weeks relative to control; format: functional; details: RT-112, 504 h, read-out: TGI
# [16] = Half life in Beagle dog at 5 mg/kg,iv administrated at 0.25 to 24 hrs by LC-MS/MS analysis; format: ADME, organism-based, Canis lupus familiaris; details: in vivo, time 0.25-24 hrs
# RT-112 [17] = test: Antitumor activity against human RT-112 cells xenografted in mouse assessed as tumor growth inhibition at 5 mg/kg,po administrated once daily for 3 weeks relative to control; format: functional; details: RT-112, 504 h, read-out: TGI
# SNU-16 [18] = test: Antitumor activity against human SNU-16 cells xenografted in mouse assessed as inhibition of tumor growth at po administrated once daily for 3 weeks; format: functional, organism-based
# [19] = Intrinsic clearance in human hepatocyte measured per 10^6 cells; format: ADME, cell-based; details: hepatocytes, read-out: CLH
# [20] = Toxicity in mouse xenografted with human SNU-16 cells assessed as body weight change at 2 to 15 mg/kg,po administrated once daily for 3 weeks; format: organism-based; details: in vivo, 504 h, dose 2-15 mg/kg
# [21] = Half life in Sprague-Dawley rat at 5 mg/kg,iv administrated at 0.25 to 24 hrs by LC-MS/MS analysis; format: ADME, organism-based; details: in vivo, time 0.25-24 hrs
# [22] = Oral bioavailability in Sprague-Dawley rat at 15 mg/kg administrated at 0.25 to 24 hrs by LC-MS/MS analysis; format: ADME, organism-based; details: in vivo, time 0.25-24 hrs
# [23] = Solubility of compound in SGF; format: ADME
# SNU-16 [24] = test: Antitumor activity against human SNU-16 cells xenografted in mouse assessed as tumor growth inhibition at 15 mg/kg,po administrated once daily for 3 weeks relative to control; format: functional; details: SNU-16, 504 h, read-out: TGI
# SNU-16 [25] = test: Antitumor activity against human SNU-16 cells xenografted in mouse assessed as tumor growth inhibition at 2 mg/kg,po administrated once daily for 3 weeks relative to control; format: functional; details: SNU-16, 504 h, read-out: TGI
# [26] = Oral bioavailability in Beagle dog at 15 mg/kg administrated at 0.25 to 24 hrs by LC-MS/MS analysis; format: ADME, organism-based, Canis lupus familiaris; details: in vivo, time 0.25-24 hrs
# [27] = Toxicity in mouse xenografted with human RT-112 cells assessed as body weight loss at 15 mg/kg,po administrated once daily for 3 weeks; format: organism-based; details: in vivo, 504 h
# [28] = AUC (0 to 24 hrs) in Sprague-Dawley rat at 15 mg/kg,po administrated at 0.25 to 24 hrs by LC-MS/MS analysis; format: ADME, organism-based; details: in vivo, time 0.25-24 hrs
# [29] = Dissociation constant, pKa of the compound; format: physicochemical
# [30] = Cmax in Beagle dog at 15 mg/kg,po administrated at 0.25 to 24 hrs by LC-MS/MS analysis; format: ADME, organism-based, Canis lupus familiaris; details: in vivo, time 0.25-24 hrs
# [31] = Toxicity in mouse xenografted with patient derived STO357 PDX cells assessed as body weight change at 5 to 15 mg/kg,po administrated once daily for 3 weeks; format: organism-based; details: in vivo, 504 h, dose 5-15 mg/kg
# RT-112 [32] = test: Antitumor activity against human RT-112 cells xenografted in mouse assessed as tumor growth inhibition at 15 mg/kg,po administrated once daily for 3 weeks relative to control; format: functional; details: RT-112, 504 h, read-out: TGI
# [33] = Unbound drug concentration in mouse plasma xenografted with patient derived STO357 PDX cells at 15 mg/kg,po administration and measured after 12 hr by LC-MS/MS analysis; format: ADME, organism-based; details: in vivo
# RT-112 [34] = test: Antitumor activity against human RT-112 cells xenografted in mouse assessed as inhibition of tumor growth at po administrated once daily for 3 weeks; format: functional, organism-based
# [35] = Antitumor activity against patient derived STO357 PDX cells xenografted in mouse assessed as tumor growth inhibition at 5 mg/kg,po administrated once daily for 3 weeks relative to control; format: functional; details: Homo sapiens, 504 h, read-out: TGI
# [36] = Unbound drug concentration in mouse plasma xenografted with patient derived STO357 PDX cells at 15 mg/kg,po administration and measured after 1 hr by LC-MS/MS analysis; format: ADME, organism-based; details: in vivo
smiles,measurement,setting,value
C=CC(=O)N1C[C@@H](n2nc(C#Cc3c(F)cc4c(ncn4C4CC4)c3F)c(C(N)=O)c2NC)C[C@@H]1COC [RESIGRATINIB],Cmax,[1],1.49 µg/mL
same,inhibition in vivo at 5 mg/kg,SNU-16 [2],81%
same,logP,[3],2.5
same,solubility,[4],0.3 mg/mL
same,clearance,[5],0.966 L/h/kg
same,clearance,[6],1.43 L/h/kg
same,solubility,[7],69.7 µM
same,microsomal CLint,[8],59.6 µL/min/mg
same,Cp(f),[9],~ 100 ng/ml
same,AUC(0-t),[10],2.1 µg·h/mL
same,solubility,[11],301 µM
same,solubility,[12],0.4 mg/mL
same,Activity,[13],75%
same,Activity,[14],25%
same,inhibition in vivo at 2 mg/kg,RT-112 [15],80%
same,half-life,[16],6.89 h
same,inhibition in vivo at 5 mg/kg,RT-112 [17],91%
same,Activity,SNU-16 [18],Dose-Dependent Effect
same,hepatocyte CLint,[19],7.2 µL/min/1e6 cells
same,Activity,[20],Non-Toxic
same,half-life,[21],5.46 h
same,bioavailability,[22],24.3%
same,solubility,[23],0.8 mg/mL
same,inhibition in vivo at 15 mg/kg,SNU-16 [24],93%
same,inhibition in vivo at 2 mg/kg,SNU-16 [25],69%
same,bioavailability,[26],17.5%
same,Activity,[27],5.4%
same,AUC(0-t),[28],3.74 µg·h/mL
same,pKa,[29],2.22
same,Cmax,[30],0.815 µg/mL
same,Activity,[31],Non-Toxic
same,inhibition in vivo at 15 mg/kg,RT-112 [32],99%
same,Drug uptake(free),[33],Not Active
same,Activity,RT-112 [34],Dose-Dependent Effect
same,inhibition in vivo at 5 mg/kg,[35],90%
same,Cp(f),[36],~ 50 ng/ml
